# Results published in ChEMBL document CHEMBL1201862, “PubChem BioAssay data set” (2004).
#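 Each compound was tested at five concentrations against cells in 96-well plates for 48 hours. Here, GI50 denotes the concentration required for 50% inhibition of growth.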 Calls of active or inactive are those of the source. Rule as the data show it: active = GI50 up to about 1.1 µM and inactive = higher.
# Key:
# Assay in all cases: growth of human tumour cells (NCI), 48 h
# SF-539 = system: SF-539
# NCI-H460 = system: NCI-H460
# SK-MEL-2 = system: SK-MEL-2
# PC-3 = system: PC-3
# U-251 = system: U-251
# OVCAR-5 = system: OVCAR-5
# SN12C = system: SN12C
# HCC 2998 = system: HCC 2998
# K562 = system: K562
# COLO 205 = system: COLO 205
# CAKI-1 = system: CAKI-1
# T47D = system: T47D
# UACC-62 = system: UACC-62
# RXF 393 = system: RXF 393
# Malme-3M = system: Malme-3M
# 786-0 = system: 786-0
# A549 = system: A549
# MDA-MB-231 = system: MDA-MB-231
# SK-MEL-28 = system: SK-MEL-28
# MOLT-4 = system: MOLT-4
# SNB-19 = system: SNB-19
# KM12 = system: KM12
# MDA-MB-435 = system: MDA-MB-435
# SR = system: SR
# SK-MEL-5 = system: SK-MEL-5
# EKVX = system: EKVX
# HCT-116 = system: HCT-116
# CCRF-CEM = system: CCRF-CEM
# Hs-578T = system: Hs-578T
# OVCAR-4 = system: OVCAR-4
# SK-OV-3 = system: SK-OV-3
# BT-549 = system: BT-549
# NCI-H522 = system: NCI-H522
# HT-29 = system: HT-29
# ACHN = system: ACHN
# SF-295 = system: SF-295
# SW-620 = system: SW-620
# M14 = system: M14
# MCF7 = system: MCF7
# NCI-H226 = system: NCI-H226
# RPMI-8226 = system: RPMI-8226
# UO-31 = system: UO-31
# UACC-257 = system: UACC-257
# DU-145 = system: DU-145
# NCI/ADR-RES = system: NCI/ADR-RES
# HOP-62 = system: HOP-62
# IGROV-1 = system: IGROV-1
# OVCAR-3 = system: OVCAR-3
# A498 = system: A498
# HOP-92 = system: HOP-92
# LOX IMVI = system: LOX IMVI
# SF-268 = system: SF-268
# SNB-75 = system: SNB-75
# NCI-H23 = system: NCI-H23
# TK-10 = system: TK-10
# HCT-15 = system: HCT-15
# OVCAR-8 = system: OVCAR-8
# HL-60 = system: HL-60
structure (smiles),measurement,setting,value
O=[N+]([O-])C(=C/C1CCCCC1)/C(=C\C1CCCCC1)[N+](=O)[O-],GI50,SF-539,2.18 µM (inactive)
same,GI50,NCI-H460,5.16 µM (inactive)
same,GI50,SK-MEL-2,16.3 µM (inactive)
same,GI50,PC-3,6.32 µM (inactive)
same,GI50,U-251,3.73 µM (inactive)
same,GI50,OVCAR-5,11.7 µM (inactive)
same,GI50,SN12C,3.24 µM (inactive)
same,GI50,HCC 2998,20.2 µM (inactive)
same,GI50,K562,4.49 µM (inactive)
same,GI50,COLO 205,3.21 µM (inactive)
same,GI50,CAKI-1,3.85 µM (inactive)
same,GI50,T47D,9.73 µM (inactive)
same,GI50,UACC-62,5.7 µM (inactive)
same,GI50,RXF 393,1.49 µM (inactive)
same,GI50,Malme-3M,2.2 µM (inactive)
same,GI50,786-0,1.84 µM (inactive)
same,GI50,A549,18.6 µM (inactive)
same,GI50,MDA-MB-231,2.73 µM (inactive)
same,GI50,SK-MEL-28,5.06 µM (inactive)
same,GI50,MOLT-4,1.56 µM (inactive)
same,GI50,SNB-19,18.4 µM (inactive)
same,GI50,KM12,11.1 µM (inactive)
same,GI50,MDA-MB-435,4.56 µM (inactive)
same,GI50,SR,1.8 µM (inactive)
same,GI50,SK-MEL-5,7.83 µM (inactive)
same,GI50,EKVX,9.4 µM (inactive)
same,GI50,HCT-116,6.43 µM (inactive)
same,GI50,CCRF-CEM,2.62 µM (inactive)
same,GI50,Hs-578T,2.84 µM (inactive)
same,GI50,OVCAR-4,18.9 µM (inactive)
same,GI50,SK-OV-3,21.7 µM (inactive)
same,GI50,BT-549,5.42 µM (inactive)
same,GI50,NCI-H522,1.8 µM (inactive)
same,GI50,HT-29,5.48 µM (inactive)
same,GI50,ACHN,3.5 µM (inactive)
same,GI50,SF-295,16.3 µM (inactive)
same,GI50,SW-620,3.35 µM (inactive)
same,GI50,M14,4.05 µM (inactive)
same,GI50,MCF7,5.3 µM (inactive)
same,GI50,NCI-H226,7.28 µM (inactive)
same,GI50,RPMI-8226,0.316 µM (active)
same,GI50,UO-31,7.87 µM (inactive)
same,GI50,UACC-257,8.63 µM (inactive)
same,GI50,DU-145,13.3 µM (inactive)
same,GI50,NCI/ADR-RES,2.47 µM (inactive)
same,GI50,HOP-62,3.71 µM (inactive)
same,GI50,IGROV-1,5.27 µM (inactive)
same,GI50,OVCAR-3,9.23 µM (inactive)
same,GI50,A498,15.3 µM (inactive)
same,GI50,HOP-92,7.05 µM (inactive)
same,GI50,LOX IMVI,2.12 µM (inactive)
same,GI50,SF-268,3.27 µM (inactive)
same,GI50,SNB-75,14.1 µM (inactive)
same,GI50,NCI-H23,2.99 µM (inactive)
same,GI50,TK-10,6.27 µM (inactive)
same,GI50,HCT-15,1.85 µM
same,GI50,OVCAR-8,3.3 µM (inactive)
same,GI50,HL-60,2.09 µM (inactive)
